Measured values published in patent publication US9179674B2, “Macrocyclic picolinamide compounds with fungicidal activity” (DOW AGROSCIENCES LLC, priority 2013, dated 2015).
Read-outs that look alike come from different tables or passages of the source.

Tests used:
[1] = system: Mycosphaerella graminicola; Anamorph: Septoria tritici; assay: Leaf Blotch of Wheat fungicidal activity (SEPTTR); assay type: in vivo; details: Zymoseptoria tritici; for pest or weed control at 100 ppm: rate 100 ppm; for pest or weed control at 121.5 g/ha: rate 121.5 g/H
Procedure, shortened: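 Acetone solutions diluted with nine volumes of water containing 110 ppm Triton X-100, sprayed to run-off on first-leaf wheat seedlings (Yuma), inoculated with S. tritici before or after treatment. Plants held in dew chambers, then in a 20 °C greenhouse. Disease severity (0–100%) scored when untreated plants fully symptomatic; % control relative to untreated.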

Puccinia triticina = assay: Wheat Brown Rust fungicidal activity (PUCCRT); assay type: in vivo; details: Puccinia triticina; for pest or weed control at 100 ppm: rate 100 ppm; for pest or weed control at 121.5 g/ha: rate 121.5 g/H
Procedure, shortened: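 Yuma wheat seedlings at first-leaf stage sprayed to run-off (acetone solution in water with 110 ppm Triton X-100) or track-sprayed as EC with 0.1% Trycol 5941; inoculated with P. triticina spores before or after treatment. Overnight dark dew at 22° C., then greenhouse 24° C.; disease severity 0–100% gives percent control vs untreated.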

[2] = 24 h, 1 Day Protectant, read-out: Disease control SEPTTR 1DP
[3] = 72 h, 3 Day Curative, read-out: Disease control SEPTTR 3DC
[4] = 24 h, 1 Day Protectant, read-out: Disease control PUCCRT 1DP
[5] = 72 h, 3 Day Curative, read-out: Disease control PUCCRT 3DC

`COc1ccnc(C(=O)N[C@H]2COC[C@H](Cc3cccc4ccccc34)[C@@H](Oc3ccc(C)cc3)[C@H](C)OC2=O)c1O` [Compound F8] showed a pest or weed control at 100 ppm [1, 2] of 80 to 100%, a pest or weed control at 100 ppm [1, 3] of 0 to 80% and a melting point of 94 to 98 °C. The pest or weed control at 100 ppm (Puccinia triticina; [4]) was 80 to 100% and the pest or weed control at 100 ppm (Puccinia triticina; [5]) was 0 to 80%.

For `COc1ccnc(C(=O)N[C@H]2COC[C@H](CC3CCCC3)[C@@H](OCC(C)C)[C@H](C)OC2=O)c1OC(C)=O` [Compound F78], the pest or weed control at 100 ppm [1, 2] was 80 to 100%, the pest or weed control at 100 ppm [1, 3] was 80 to 100% and the melting point was 56 to 59 °C. The pest or weed control at 100 ppm (Puccinia triticina; [4]) was 80 to 100% and the pest or weed control at 100 ppm (Puccinia triticina; [5]) was 80 to 100%.

Compound `COc1ccnc(C(=O)N[C@H]2COC[C@H](Cc3ccc(C)cc3)[C@@H](OC(=O)C(C)C)[C@H](C)OC2=O)c1OCOC(C)=O` [Compound F89] has a pest or weed control at 100 ppm [1, 2] of 80 to 100%, a pest or weed control at 100 ppm [1, 3] of 80 to 100% and a melting point of 43 to 47 °C. For the same compound, the pest or weed control at 100 ppm (Puccinia triticina; [4]) was 80 to 100% and the pest or weed control at 100 ppm (Puccinia triticina; [5]) was 80 to 100%.

`COc1ccnc(C(=O)N[C@H]2COC[C@H](Cc3ccc(F)cc3)[C@@H](OC(=O)C3CC3)[C@H](C)OC2=O)c1O` [Compound F13] showed a pest or weed control at 100 ppm [1, 2] of 80 to 100%, a pest or weed control at 100 ppm [1, 3] of 80 to 100% and a melting point of 68 to 73 °C. For the same compound, the pest or weed control at 100 ppm (Puccinia triticina; [4]) was 80 to 100% and the pest or weed control at 100 ppm (Puccinia triticina; [5]) was 80 to 100%.

`CCCCCO[C@@H]1[C@@H](Cc2ccc(Cl)cc2Cl)COC[C@H](NC(=O)c2nccc(OC)c2OCOC(C)=O)C(=O)O[C@H]1C` [Compound F112] showed a pest or weed control at 121.5 g/ha [1, 2] of 80 to 100%, a pest or weed control at 121.5 g/ha [1, 3] of 80 to 100% and a melting point of 53 to 57 °C. For the same compound, the pest or weed control at 121.5 g/ha (Puccinia triticina; [4]) was 80 to 100% and the pest or weed control at 121.5 g/ha (Puccinia triticina; [5]) was 0 to 80%.

Work on `COc1ccnc(C(=O)N[C@H]2COC[C@H](Cc3ccc(Cl)cc3Cl)[C@@H](OCC(C)C)[C@H](C)OC2=O)c1OCOC(C)=O` [Compound F111] yielded a pest or weed control at 100 ppm [1, 2] of 80 to 100%, a pest or weed control at 100 ppm [1, 3] of 80 to 100% and a melting point of 49 to 53 °C. It also gave a pest or weed control at 100 ppm (Puccinia triticina; [4]) of 80 to 100% and a pest or weed control at 100 ppm (Puccinia triticina; [5]) of 80 to 100%.

With `CCCCCO[C@@H]1[C@@H](Cc2ccc(Cl)cc2Cl)COC[C@H](NC(=O)c2nccc(OC)c2OC(C)=O)C(=O)O[C@H]1C` [Compound F75] the pest or weed control at 100 ppm [1, 2] was 80 to 100%, the pest or weed control at 121.5 g/ha [1, 2] was 80 to 100% and the pest or weed control at 100 ppm [1, 3] was 80 to 100%. For the same compound, the pest or weed control at 121.5 g/ha [1, 3] was 80 to 100%, the melting point was 55 to 59 °C and the pest or weed control at 100 ppm (Puccinia triticina; [4]) was 80 to 100%. The pest or weed control at 121.5 g/ha (Puccinia triticina; [4]) was 80 to 100%, the pest or weed control at 100 ppm (Puccinia triticina; [5]) was 80 to 100% and the pest or weed control at 121.5 g/ha (Puccinia triticina; [5]) was 0 to 80%.

With `COc1ccnc(C(=O)N[C@H]2COC[C@H](Cc3ccc(F)cc3)[C@@H](OC(=O)C(C)C)[C@H](C)OC2=O)c1OC(C)=O` [Compound F56] the pest or weed control at 100 ppm [1, 2] was 80 to 100%, the pest or weed control at 100 ppm [1, 3] was 80 to 100% and the melting point was 74 to 79 °C. It also gave a pest or weed control at 100 ppm (Puccinia triticina; [4]) of 80 to 100% and a pest or weed control at 100 ppm (Puccinia triticina; [5]) of 80 to 100%.

With `CCCCCO[C@@H]1[C@@H](Cc2cccc3ccccc23)COC[C@H](NC(=O)c2nccc(OC)c2O)C(=O)O[C@H]1C` [Compound F7] the pest or weed control at 100 ppm [1, 2] was 80 to 100%, the pest or weed control at 100 ppm [1, 3] was 0 to 80% and the melting point was 116 to 120 °C. The pest or weed control at 100 ppm (Puccinia triticina; [4]) was 80 to 100% and the pest or weed control at 100 ppm (Puccinia triticina; [5]) was 0 to 80%.

With `COc1ccnc(C(=O)N[C@H]2COC[C@H](Cc3ccc(Cl)cc3Cl)[C@@H](OCC(C)C)[C@H](C)OC2=O)c1OC(C)=O` [Compound F74] the pest or weed control at 100 ppm [1, 2] was 80 to 100%, the pest or weed control at 100 ppm [1, 3] was 80 to 100% and the melting point was 69 to 73 °C. For the same compound, the pest or weed control at 100 ppm (Puccinia triticina; [4]) was 80 to 100% and the pest or weed control at 100 ppm (Puccinia triticina; [5]) was 80 to 100%.

In the case of `COc1ccnc(C(=O)N[C@H]2COC[C@H](Cc3cccc4ccccc34)[C@@H](OCCCC(F)(F)F)[C@H](C)OC2=O)c1O` [Compound F6], the pest or weed control at 100 ppm [1, 2] is reported as 80 to 100%, the pest or weed control at 100 ppm [1, 3] is reported as 0 to 80% and the melting point is reported as 118 to 122 °C. The pest or weed control at 100 ppm (Puccinia triticina; [4]) was 0 to 80%.

For `COc1ccnc(C(=O)N[C@H]2COC[C@H](Cc3cccc4ccccc34)[C@@H](OC3CCCC3)[C@H](C)OC2=O)c1O` [Compound F9], the pest or weed control at 100 ppm [1, 2] was 80 to 100%, the pest or weed control at 100 ppm [1, 3] was 80 to 100% and the melting point was 78 to 85 °C. It also gave a pest or weed control at 100 ppm (Puccinia triticina; [4]) of 80 to 100%.
